Legend:
[1] = Binding affinity to 5'-GCGGGGGC-3' DNA hairpin assessed as change in fluorescence intensity at 1 uM after 45 mins by fluorescence quenching analysis relative to control
[2] = Binding affinity to 5'-GCGGCCGG-3' DNA hairpin assessed as change in fluorescence intensity at 1 uM after 45 mins by fluorescence quenching analysis relative to control
[3] = Binding affinity to 5'-CGGGCCCG-3' DNA hairpin assessed as change in fluorescence intensity at 1 uM after 45 mins by fluorescence quenching analysis relative to control
[4] = Binding affinity to 5'-GCCGGGCC-3' DNA hairpin assessed as change in fluorescence intensity at 1 uM after 45 mins by fluorescence quenching analysis relative to control
[5] = Binding affinity to 5'-CCCCGCGG-3' DNA hairpin assessed as change in fluorescence intensity at 1 uM after 45 mins by fluorescence quenching analysis relative to control
[6] = Binding affinity to 5'-CCGCGGCG-3' DNA hairpin assessed as change in fluorescence intensity at 1 uM after 45 mins by fluorescence quenching analysis relative to control
[7] = Binding affinity to 5'-CGGCCGCC-3' DNA hairpin assessed as change in fluorescence intensity at 1 uM after 45 mins by fluorescence quenching analysis relative to control
[8] = Binding affinity to 5'-GGCGCGCG-3' DNA hairpin assessed as change in fluorescence intensity at 1 uM after 45 mins by fluorescence quenching analysis relative to control
[9] = Binding affinity to 5'-GCCCGCGC-3' DNA hairpin assessed as change in fluorescence intensity at 1 uM after 45 mins by fluorescence quenching analysis relative to control
[10] = Binding affinity to 5'-GGCCGGCG-3' DNA hairpin assessed as change in fluorescence intensity at 1 uM after 45 mins by fluorescence quenching analysis relative to control
[11] = Binding affinity to 5'-CCCGCGCG-3' DNA hairpin assessed as change in fluorescence intensity at 1 uM after 45 mins by fluorescence quenching analysis relative to control
[12] = Binding affinity to 5'-CCGCCCGC-3' DNA hairpin assessed as change in fluorescence intensity at 1 uM after 45 mins by fluorescence quenching analysis relative to control
[13] = Binding affinity to 5'-CGCCGGGC-3' DNA hairpin assessed as change in fluorescence intensity at 1 uM after 45 mins by fluorescence quenching analysis relative to control
[14] = Binding affinity to 5'-CGGCCGCG-3' DNA hairpin assessed as change in fluorescence intensity at 1 uM after 45 mins by fluorescence quenching analysis relative to control
[15] = Binding affinity to 5'-CCGGGGCC-3' DNA hairpin assessed as change in fluorescence intensity at 1 uM after 45 mins by fluorescence quenching analysis relative to control
[16] = Binding affinity to 5'-GCCGCGGC-3' DNA hairpin assessed as change in fluorescence intensity at 1 uM after 45 mins by fluorescence quenching analysis relative to control
[17] = Binding affinity to 5'-GCGCCCCC-3' DNA hairpin assessed as change in fluorescence intensity at 1 uM after 45 mins by fluorescence quenching analysis relative to control
[18] = Binding affinity to 5'-CGCGCGGG-3' DNA hairpin assessed as change in fluorescence intensity at 1 uM after 45 mins by fluorescence quenching analysis relative to control
[19] = Binding affinity to 5'-GGGCCCGC-3' DNA hairpin assessed as change in fluorescence intensity at 1 uM after 45 mins by fluorescence quenching analysis relative to control
[20] = Binding affinity to 5'-CGCCGCCC-3' DNA hairpin assessed as change in fluorescence intensity at 1 uM after 45 mins by fluorescence quenching analysis relative to control
[21] = Binding affinity to 5'-GGCCGGGC-3' DNA hairpin assessed as change in fluorescence intensity at 1 uM after 45 mins by fluorescence quenching analysis relative to control
[22] = Binding affinity to 5'-CCGGCCCC-3' DNA hairpin assessed as change in fluorescence intensity at 1 uM after 45 mins by fluorescence quenching analysis relative to control
[23] = Binding affinity to 5'-CGCCGCGG-3' DNA hairpin assessed as change in fluorescence intensity at 1 uM after 45 mins by fluorescence quenching analysis relative to control
[24] = Binding affinity to 5'-GCGGCGCG-3' DNA hairpin assessed as change in fluorescence intensity at 1 uM after 45 mins by fluorescence quenching analysis relative to control
[25] = Binding affinity to 5'-CCGCGCGC-3' DNA hairpin assessed as change in fluorescence intensity at 1 uM after 45 mins by fluorescence quenching analysis relative to control
[26] = Binding affinity to 5'-GCCGCCGC-3' DNA hairpin assessed as change in fluorescence intensity at 1 uM after 45 mins by fluorescence quenching analysis relative to control
[27] = Binding affinity to 5'-CGCCCCCC-3' DNA hairpin assessed as change in fluorescence intensity at 1 uM after 45 mins by fluorescence quenching analysis relative to control
[28] = Binding affinity to 5'-GCCCGCCG-3' DNA hairpin assessed as change in fluorescence intensity at 1 uM after 45 mins by fluorescence quenching analysis relative to control
[29] = Binding affinity to 5'-GCGCCCGC-3' DNA hairpin assessed as change in fluorescence intensity at 1 uM after 45 mins by fluorescence quenching analysis relative to control
[30] = Binding affinity to 5'-GCCGCCGG-3' DNA hairpin assessed as change in fluorescence intensity at 1 uM after 45 mins by fluorescence quenching analysis relative to control
[31] = Binding affinity to 5'-CGGGCCGG-3' DNA hairpin assessed as change in fluorescence intensity at 1 uM after 45 mins by fluorescence quenching analysis relative to control
[32] = Binding affinity to 5'-CGCCCGGC-3' DNA hairpin assessed as change in fluorescence intensity at 1 uM after 45 mins by fluorescence quenching analysis relative to control
[33] = Binding affinity to 5'-GCGGGCCC-3' DNA hairpin assessed as change in fluorescence intensity at 1 uM after 45 mins by fluorescence quenching analysis relative to control
[34] = Binding affinity to 5'-CCGGGCCC-3' DNA hairpin assessed as change in fluorescence intensity at 1 uM after 45 mins by fluorescence quenching analysis relative to control
[35] = Binding affinity to 5'-CCCCGCCG-3' DNA hairpin assessed as change in fluorescence intensity at 1 uM after 45 mins by fluorescence quenching analysis relative to control
[36] = Binding affinity to 5'-CGGCGCGG-3' DNA hairpin assessed as change in fluorescence intensity at 1 uM after 45 mins by fluorescence quenching analysis relative to control

- Activity [1]: 36.9%
- Activity [2]: 40.9%
- Activity [3]: 41.3%
- Activity [4]: 51%
- Activity [5]: 53.3%
- Activity [6]: 50.1%
- Activity [7]: 47.7%
- Activity [8]: 57.1%
- Activity [9]: 40.4%
- Activity [10]: 47.6%
- Activity [11]: 51.8%
- Activity [12]: 48.7%
- Activity [13]: 49.5%
- Activity [14]: 48.6%
- Activity [15]: 37.6%
- Activity [16]: 56.3%
- Activity [17]: 45.7%
- Activity [18]: 49.9%
- Activity [19]: 30.6%
- Activity [20]: 44.6%
- Activity [21]: 45.6%
- Activity [22]: 39.4%
- Activity [23]: 49.8%
- Activity [24]: 45.8%
- Activity [25]: 57.5%
- Activity [26]: 47.9%
- Activity [27]: 25.1%
- Activity [28]: 43.8%
- Activity [29]: 50.3%
- Activity [30]: 54.5%
- Activity [31]: 48.2%
- Activity [32]: 46.6%
- Activity [33]: 47.8%
- Activity [34]: 38.9%
- Activity [35]: 41.4%
- Activity [36]: 43.2%
Compound: NCC1O[C@H](O[C@H]2[C@@H](O)[C@H](O[C@@H]3[C@@H](O)[C@H](N)C[C@H](N)[C@H]3O[C@H]3O[C@H](CN)[C@@H](O)[C@H](O)[C@H]3N)O[C@@H]2CSCCNC(=O)CCSCC(=O)Nc2ccc(-c3c4ccc(=O)cc-4oc4cc(O)ccc34)c(C(=O)O)c2)[C@H](N)[C@@H](O)[C@@H]1O (stereo partly specified)

— ChEMBL document CHEMBL4000244, “Probing A-form DNA: A fluorescent aminosugar probe and dual recognition by anthraquinone-neomycin conjugates” (Bioorg Med Chem, 2017)
